Data taken from patent publication US11186575B2, “Treatment of helicobacter pylori infections” (Albert Einstein College of Medicine, Inc., priority 2012, dated 2021).
Values after ≈ are worked out from the molar mass of the structure shown. Like-named read-outs stand apart in the source and are kept apart here.

Columns and labels:
H. pylori MTAN [1] = target: T1, H. pylori MTAN (Helicobacter pylori, UniProt Q9ZMY2); experiment: Ki determination: inhibition of recombinant HpMTAN, xanthine oxidase coupled assay, 5′-methylthioadenosine as substrate; format: biochemical
T1 construct: His6 (N); made in house; host or cells: E. coli BL21 (DE3)
T1 sequence (Q9ZMY2 1-230): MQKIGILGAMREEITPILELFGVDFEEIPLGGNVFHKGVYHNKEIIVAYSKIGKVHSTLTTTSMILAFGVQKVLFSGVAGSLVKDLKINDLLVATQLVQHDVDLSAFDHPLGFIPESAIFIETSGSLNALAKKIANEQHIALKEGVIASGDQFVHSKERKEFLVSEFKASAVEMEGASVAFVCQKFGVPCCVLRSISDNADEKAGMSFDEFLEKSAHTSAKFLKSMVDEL
Procedure: The purification procedure of HpMTAN was described previously^10. Briefly, BL21 (DE3) cells harboring a plasmid encoding HpMTAN with an N-terminal His6-tag were grown to an optical density of 0.7 measured at 595 nm and IPTG was introduced to a final concentration of 0.5 mM. After another 15 h at 22° C., cells were collected by centrifugation. The pellet was suspended and later disrupted by pressure cell and sonication. The soluble portion was applied to a Ni-NTA column and HpMTAN was eluted with an imidazole concentration gradient of 200 to 500 mM. The protein was desalted using a Superdex G15 gel-filtration column then equilibrated and concentrated in 10 mM Hepes, 30 mM KCl, pH 7.6. The purity was confirmed by SDS-PAGE.
Kinetics of HpMTAN were determined using a direct assay involving absorbance decrease at 274 nm continuously as a consequence of formation of free adenine from 5′-methylthioadenosine. The Ki and Ki* values of BuT-DADMe-ImmA (30) were determined using coupled assays, in which xanthine oxidase was used as the coupling enzyme and absorbance increase was followed at 292 nm as the product adenine is converted to 2,8-dihydroxyadenine. Both assays have been previously described
BuT-DADMe-ImmA (30) was previously characterized as a transition state analogue inhibitor of EcMTAN (FIG. 1C)^8. Here, inhibition assays were performed using BuT-DADMe-ImmA against recombinant HpMTAN with 5′-methylthioadenosine as substrate. Purified HpMTAN uses both 5′-methylthioadenosine and 6-amino-6-deoxyfutalosine as facile substrates. […] The low Kd value supports the proposal that BuT-DADMe-ImmA is a transition state analogue inhibitor for HpMTAN. […] The nitrogen of the hydroxypyrrolidine moiety has a pKa value of 9, and thus mimics the positive charge of a ribocation at the transition state. The methylene bridge extends the distance between the sugar and the purine base leaving group, as this distance is near 3 Å at the transition state. The 9-deazaadenine alters conjugation in the purine ring, causing an elevated pKa and protonation of N7, resembling the N7-protonated adenine leaving group at the transition state.

H. pylori = H. pylori growth on tryptic soy agar with 5% horse blood (MIC); format: cell-based, Helicobacter pylori; settings: Helicobacter pylori, read-out: Inhibition of H. pylori growth MIC90
Procedure: H. pylori were grown for 72 hours under microaerophilic condition (5% O2, 10% CO2 and 85% N2) at 37° C. on tryptic soy agar with 5% horse blood. To determine the MIC values, the test substance was added to the gel solution right before pouring. To compare the zones of inhibition, specific antibiotics were added to the center of disc after spreading H. pylori, and then H. pylori was allowed to grow for 72 hours under microaerophilic condition at 37° C.
The effects of BuT-DADMe-ImmA (30) were tested on H. pylori growing on 5% horse blood agar. At 6 ng/ml, slight growth was detected and at 8 ng/ml, no growth was detected, therefore the MIC90 value for inhibition of H. pylori growth is <8 ng/ml (FIG. 3A).

H. pylori MTAN [2] = target: T1, H. pylori MTAN; settings: Table 3, cited from earlier work
[3] = Table 3, DADMe-Immucillin-A series, initial inhibition constant, read-out: Inhibition of H. pylori MTAN Ki
[4] = Table 3, equilibrium dissociation constant after slow onset, read-out: Inhibition of H. pylori MTAN Ki*
[5] = Table 3, agar plate, 72 hours, microaerophilic
[6] = Table 4, Immucillin-A series, read-out: Inhibition of H. pylori MTAN Ki
[7] = 72 h, Table 4, Immucillin-A series
[8] = Table 4, Immucillin-A series, read-out: Inhibition of H. pylori MTAN Ki*

Row | SMILES | Ki (H. pylori MTAN [1]; [3]) [nM] | Ki (H. pylori MTAN [1]; [4]) [nM] | MIC90 (H. pylori; [5]) [µg/mL] | further results
1 | Nc1ncnc2c(CN3C[C@H](CSc4ccccn4)[C@@H](O)C3)c[nH]c12 [Compound 24, (3R,4S)-1-({4-Amino-5H-pyrrolo[3,2-d]pyrimidin-7-yl}methyl)-4-[(pyridin-2-ylthio)methyl]pyrrolidin-3-ol] | 0.32 ± 0.7 | 0.041 ± 0.002 | 0.04 (≈ 0.112 µM) | 
2 | Nc1ncnc2c(CN3CC(O)[C@@H](CSCCCO)C3)c[nH]c12 (stereo partly drawn) [Compound 11, (4S)-1-((4-Amino-5H-pyrrolo[3,2-d]pyrimidin-7-yl)methyl)-4-(((3-hydroxypropyl)thio)methyl)pyrrolidin-3-ol] | 0.89 ± 0.13 | 0.1 ± 0.01 | 0.04 (≈ 0.119 µM) | 
3 | Nc1ncnc2c(CN3CC(O)[C@@H](CSCCOCCO)C3)c[nH]c12 (stereo partly drawn) [Compound 13, (4S)-1-((4-Amino-5H-pyrrolo[3,2-d]pyrimidin-7-yl)methyl)-4-(((2-(2-hydroxyethoxyl)ethyl)thio)methyl)pyrrolidin-3-ol] | 0.96 ± 0.16 | 0.015 ± 0.004 | 0.035 to 0.07 (≈ 0.0952 to 0.19 µM) | 
4 | CSCC1CN(Cc2c[nH]c3c(N)ncnc23)CC1O (stereo not drawn) [Compound 31] |  |  | 0.006 to 0.012 (≈ 0.0205 to 0.0409 µM) | Ki (H. pylori MTAN [2]; read-out: Inhibition of H. pylori MTAN Ki*, value from Reference 10): 0.57 nM; Ki (H. pylori MTAN [2]; read-out: Inhibition of H. pylori MTAN Ki, value marked (Reference 10)): 1.2 nM
5 | Nc1ncnc2c(CN3C[C@H](CSCC4CCCCC4)[C@@H](O)C3)c[nH]c12 [Compound 36] | 0.56 ± 0.27 | 0.045 ± 0.004 | 0.018 to 0.035 (≈ 0.0479 to 0.0932 µM) | 
6 | CCCSC[C@H]1NC(c2c[nH]c3c(N)ncnc23)[C@H](O)[C@@H]1O (stereo partly drawn) [Compound 42] |  |  |  | Ki (H. pylori MTAN [1]; [6]): 0.6 ± 0.1 nM; MIC90 (H. pylori; [7]): 0.016 µg/mL (≈ 0.0495 µM)
7 | Nc1ncnc2c(CN3C[C@H](CSC4CCCCCC4)[C@@H](O)C3)c[nH]c12 [Compound 37] | 0.4 ± 0.05 | 0.027 ± 0.002 | 0.035 to 0.07 (≈ 0.0932 to 0.186 µM) | 
8 | Nc1ncnc2c(CN3C[C@H](CCSCCOCCO)[C@@H](O)C3)c[nH]c12 [Compound 17, (3R,4S)-1-({4-Amino-5H-pyrrolo[3,2-d]pyrimidin-7-yl}methyl)-4-(2-{[2-(2-hydroxyethoxy)ethyl]thio}ethyl)pyrrolidin-3-ol] | 0.28 ± 0.03 | 0.05 ± 0.01 | 0.08 (≈ 0.21 µM) | 
9 | Nc1ncnc2c(CN3CC(O)[C@@H](CSCCO)C3)c[nH]c12 (stereo partly drawn) [Compound 10, (4S)-1-((4-amino-5H-pyrrolo[3,2-d]pyrimidin-7-yl)methyl)-4-(((2-hydroxyethyl)thio)methyl)pyrrolidin-3-ol] | 0.43 ± 0.12 | 0.04 ± 0.01 |  | 
10 | CSC[C@H]1NC(c2c[nH]c3c(N)ncnc23)[C@H](O)[C@@H]1O (stereo partly drawn) [Compound 44] |  |  |  | Ki (H. pylori MTAN [1]; [6]): 0.98 ± 0.06 nM; Ki (H. pylori MTAN [1]; [8]): 0.24 ± 0.03 nM; MIC90 (H. pylori; [7]): 0.08 µg/mL (≈ 0.271 µM)
11 | Nc1ncnc2c(CN3C[C@H](CSCc4ccccc4)[C@@H](O)C3)c[nH]c12 [Compound 38] | 203 ± 28 | 0.31 ± 0.08 | 0.04 (≈ 0.108 µM) | 
12 | CCCCSC[C@H]1NC(c2c[nH]c3c(N)ncnc23)[C@H](O)[C@@H]1O (stereo partly drawn) [Compound 43] |  |  |  | Ki (H. pylori MTAN [1]; [6]): 0.51 ± 0.07 nM; Ki (H. pylori MTAN [1]; [8]): 0.05 ± 0.01 nM; MIC90 (H. pylori; [7]): 0.02 µg/mL (≈ 0.0593 µM)
13 | Nc1ncnc2c(CN3C[C@H](CSC4CCC4)[C@@H](O)C3)c[nH]c12 [Compound 40] | 0.27 ± 0.04 | 0.04 ± 0.01 |  | 
14 | CCSC[C@H]1CN(Cc2c[nH]c3c(N)ncnc23)C[C@@H]1O [Compound 34] | 0.12 ± 0.03 | 0.52 ± 0.04 | 0.016 (≈ 0.052 µM) | 
15 | Nc1ncnc2c(CN3C[C@H](CSc4nccs4)[C@@H](O)C3)c[nH]c12 [Compound 29] | 0.24 ± 0.07 | 0.016 ± 0.005 | 0.02 (≈ 0.0552 µM) | 
16 | CCCCCCSC[C@H]1CN(Cc2c[nH]c3c(N)ncnc23)C[C@@H]1O [Compound 18, (3R,4S)-1-({4-Amino-5H-pyrrolo[3,2-d]pyrimidin-7-yl}methyl)-4-[(hexylthio)methyl]pyrrolidin-3-ol] | 0.21 ± 0.03 | 0.005 ± 0.002 | 0.004 to 0.008 (≈ 0.011 to 0.022 µM) | 
17 | Nc1ncnc2c(CN3C[C@H](CCSCCO)[C@@H](O)C3)c[nH]c12 [Compound 16, (3R,4S)-1-({4-Amino-5H-pyrrolo[3,2-d]pyrimidin-7-yl}methyl)-4-{2-[(2-hydroxyethyl)thio]ethyl}pyrrolidin-3-ol] | 0.26 ± 0.03 | 0.05 ± 0.01 | 0.08 (≈ 0.237 µM) | 
18 | Nc1ncnc2c(CN3C[C@H](CSC4CCCC4)[C@@H](O)C3)c[nH]c12 [Compound 32] | 0.78 ± 0.15 | 0.17 ± 0.01 | 0.007 to 0.014 (≈ 0.0201 to 0.0403 µM) | 
19 | Nc1ncnc2c(CN3CC(O)C(CSc4ccc(Cl)cc4)C3)c[nH]c12 (stereo not drawn) [Compound 41] |  |  |  | Ki (H. pylori MTAN [2]; value from Reference 10, read-out: Inhibition of H. pylori MTAN Ki*): 0.57 nM; Ki (H. pylori MTAN [2]; value marked (Reference 10), read-out: Inhibition of H. pylori MTAN Ki): 40 nM
20 | Nc1ncnc2c(CN3CC(O)[C@@H](CSCCCCO)C3)c[nH]c12 (stereo partly drawn) [Compound 12, (4S)-1-((4-Amino-5H-pyrrolo[3,2-d]pyrimidin-7-yl)methyl)-4-(((4-hydroxybutyl)thio)methyl)pyrrolidin-3-ol] | 0.34 ± 0.07 | 0.11 ± 0.04 | 0.02 (≈ 0.0569 µM) | 
21 | Nc1ncnc2c(CN3C[C@H](CSc4cnccn4)[C@@H](O)C3)c[nH]c12 [Compound 27, (3R,4S)-1-({4-Amino-5H-pyrrolo[3,2-d]pyrimidin-7-yl}methyl)-4-[(pyrazin-2-ylthio)methyl]pyrrolidin-3-ol] | 0.043 ± 0.001 | 0.006 | 0.008 (≈ 0.0224 µM) | 
22 | CCC[C@H]1CN(Cc2c[nH]c3c(N)ncnc23)C[C@@H]1O [Compound 35] | 0.053 ± 0.007 |  | 0.016 (≈ 0.0581 µM) | 
23 | CCCC[C@H]1CN(Cc2c[nH]c3c(N)ncnc23)C[C@@H]1O [Compound 33] | 0.058 ± 0.014 | 0.007 ± 0.002 | 0.01 (≈ 0.0346 µM) | 
24 | C#CCCCCSC[C@H]1CN(Cc2c[nH]c3c(N)ncnc23)C[C@@H]1O [Compound 14, (3R,4S)-1-({4-Amino-5H-pyrrolo[3,2-d]pyrimidin-7-yl}methyl)-4-[(hex-5-yn-1-ylthio)methyl]pyrrolidin-3-ol] | 0.5 ± 0.2 | 0.09 ± 0.02 | 0.004 to 0.008 (≈ 0.0111 to 0.0223 µM) | 
25 | Nc1ncnc2c(CN3C[C@H](CSc4n[nH]c(-c5ccncc5)n4)[C@@H](O)C3)c[nH]c12 [Compound 56, (3R,4S)-1-({4-Amino-5H-pyrrolo[3,2-d]pyrimidin-7-yl}methyl)-4-({[5-(pyridin-4-yl)-1H-1,2,4-triazol-3-yl]thio}methyl)pyrrolidin-3-ol] | 0.28 ± 0.02 |  | > 0.1 | 
26 | CCCCCCSCC[C@H]1CN(Cc2c[nH]c3c(N)ncnc23)C[C@@H]1O [Compound 19, (3R,4S)-1-({4-Amino-5H-pyrrolo[3,2-d]pyrimidin-7-yl}methyl)-4-[2-(hexylthio)ethyl]pyrrolidin-3-ol] | 0.7 ± 0.1 | 0.14 ± 0.01 | 0.04 (≈ 0.106 µM) | 
